pKi: −log10 of the molar value. Like-named read-outs stand apart in the source and are kept apart here.
Experiments:
CK2 = biological target: T1, CK2 (Rattus norvegicus, UniProt P19139); experiment: CK2 phosphorylation assay, kinetic determination of inhibition constant; assay type: biochemical
T1 construct: Native CK1 (nCK1) and CK2 (nCK2) were purified from rat liver; from tissue; host or cells: rat liver

CK1 (casein kinase 1) = experiment: Enzymatic activity of kinases, residual activity with inhibitor; assay type: biochemical, rat; settings: inhibitor at 10 μM; percentage activity without an inhibitor
Experimental: (§1) Tests of enzymatic activity of kinases were carried out using methodology described by Sarno et al. 2003 and are summarized in Table 1. […] Native CK1 (nCK1) and CK2 (nCK2) were purified from rat liver (Meggio et al., 1981); Golgi CK (G-CK), purified from rat lactating mammary gland, was provided by Dr. A. M. Brunati (Padova, Italy). Protein tyrosine kinases Lyn, c-Fgr, Syk (also termed TPK-IIB) were purified from rat spleen as previously referenced (Sarno et al., 2003). Human recombinant α and β subunits of CK2 were expressed in E. coli and the holoenzyme was reconstituted and purified as previously described (Sarno et al., 1996). The […] and […] CK2 mutants were obtained as described previously (Sarno et al., 2003). […] double mutant was obtained with the “QuikChange-SiteDirected Mutagenesis” kit (Stratagene), using human […] cDNA α inserted in pT7-7 vector as template and two synthetic oligonucleotide primers, [NT] and [NT], each complementary to opposite strands of template. Expression and purification of the mutant was performed as previously described (Sarno et al., 2003).

[1] = tested on: G-CK (casein kinase from Golgi apparatus); experiment: as above; assay type: biochemical, rat; settings: inhibitor at 10 μM; percentage activity without an inhibitor
Experimental: as §1

DYRK1a = DYRK1a (Homo sapiens, UniProt Q13627); experiment: as above; assay type: biochemical; settings: inhibitor at 10 μM; percentage activity without an inhibitor
Experimental: Tests of enzymatic activity of kinases were carried out using methodology described by Sarno et al. 2003 and are summarized in Table 1. The residual activity was determined by incubation in the presence of inhibitor at a concentration of 10 μM and expressed as percentage activity without an inhibitor.
Saccharomyces cerevisiae piD261 was provided by Dr. S. Facchin (Padova, Italy). The source of all the other protein kinases used for specificity assays is either described or referenced by Davies et al. (2000).

[2] = tested on: human leukemia Jurkat T cells; experiment: Cytotoxic effect, MTT viability assay; assay type: cell-based; settings: 24 hours
Experimental: Leukemia Jurkat cells were incubated for 24 hours in a medium of increasing concentration of 4,5,6,7-tetrabromobenzimidazole (TBB) or 2-dimethylamino-4,5,6,7-tetrabromobenzimidazole (K25). The cytotoxic effect was assessed by means of staining with a use of MTT, (3-(4,5-dimethylthiazol-2-yl)-3,5-diphenyltriazolium bromide, reagent. Control cells were incubated in a medium with added solvent (DMSO, 05% v/v). The results were calculated as mean values of three experiments. The resulting cytotoxic effect of 4,5,6,7-tetrabromo-2-dimethylaminobenzimidazole on human leukemia Jurkat T cells is presented in FIG. 1. […].
The human leukemia Jurkat T-cell line was maintained in RPMI-1640, supplemented with 10% (v/v) fetal calf serum, 2 mM L-glutamine, 100 units/ml penicillin and 100 ug/ml streptomycin. For the treatment, cells were suspended at a density of 10^6 cells/ml in a medium containing 1% (v/v) fetal calf serum, then incubated at 37° C., in the presence of the compounds at the indicated concentrations. Control cells were treated with equal amounts of solvent inhibitor was solved. […]
(§2) Cell viability was assessed by means of 3-(4,5-dimethylthiazol-2-yl)-3,5-diphenyltriazolium bromide (MTT) reagent, while caspase activation was followed by Western blot monitoring of PARP and HS1 protein degradation, as previously described (Ruzzene et al., 2002).

[3] = tested on: human leukemia Jurkat cells; experiment: Caspase activation by Western blot of PARP and HS1 degradation; assay type: cell-based; settings: 14 hours, 5 or 10 uM, FIG. 2
Experimental: Leukemia Jurkat cells were incubated for 14 hours without the addition of 2-dimethylamino-4,5,6,7-tetrabromobenzimidazole (C), and in a medium including 5 or 10 uM of 2-dimethylamino-4,5,6,7-tetrabromobenzimidazole and 50 ng/mL of antiFas (aF), a control substance to follow the apoptosis process.
The human leukemia Jurkat T-cell line was maintained in RPMI-1640, supplemented with 10% (v/v) fetal calf serum, 2 mM L-glutamine, 100 units/ml penicillin and 100 ug/ml streptomycin. For the treatment, cells were suspended at a density of 10^6 cells/ml in a medium containing 1% (v/v) fetal calf serum, then incubated at 37° C., in the presence of the compounds at the indicated concentrations. Control cells were treated with equal amounts of solvent inhibitor was solved. At the end of incubations, cells were lysed by the addition of hypoosmotic buffer, as previously described (Sarno et al., 2003).
as §2

isolated mitochondria = experiment: Depolarization of isolated mitochondria
[4] = CK2, competitive with respect of ATP, read-out: Inhibition constant Ki

T1 sequence (P19139 whole entry): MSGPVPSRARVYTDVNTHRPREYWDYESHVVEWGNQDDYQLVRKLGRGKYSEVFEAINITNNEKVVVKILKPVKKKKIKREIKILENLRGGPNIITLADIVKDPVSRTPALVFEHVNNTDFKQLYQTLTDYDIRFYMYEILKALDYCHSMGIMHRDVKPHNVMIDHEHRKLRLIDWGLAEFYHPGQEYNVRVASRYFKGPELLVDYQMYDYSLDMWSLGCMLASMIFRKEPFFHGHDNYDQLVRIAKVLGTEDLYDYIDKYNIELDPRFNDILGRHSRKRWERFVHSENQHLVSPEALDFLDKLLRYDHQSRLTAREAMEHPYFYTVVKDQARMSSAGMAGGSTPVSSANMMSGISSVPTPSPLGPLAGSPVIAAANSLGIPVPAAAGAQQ
T1 sequence (P67874 2-215 partner limits assumed): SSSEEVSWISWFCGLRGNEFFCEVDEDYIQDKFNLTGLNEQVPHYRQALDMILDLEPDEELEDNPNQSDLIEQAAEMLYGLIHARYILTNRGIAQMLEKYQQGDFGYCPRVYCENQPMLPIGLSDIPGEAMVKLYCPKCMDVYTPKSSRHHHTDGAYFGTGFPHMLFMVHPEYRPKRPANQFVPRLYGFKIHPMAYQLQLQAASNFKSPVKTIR

CN(C)CCNc1nc2c(Br)c(Br)c(Br)c(Br)c2[nH]1 [2-(2-Dimethylaminoethylamino)-4,5,6,7-tetrabromo-1H-benzimidazole]
pKi (CK2): 6.80
melting point: > 250 °C (dec.)

CC(O)CNc1nc2c(Br)c(Br)c(Br)c(Br)c2[nH]1 (stereo not drawn) [2-(2-hydroxypropylamino)-4,5,6,7-tetrabromo-1H-benzimidazole]
pKi (CK2; [4]): 6.85
melting point: 258 to 260 °C

OCCNc1nc2c(Br)c(Br)c(Br)c(Br)c2[nH]1 [2-Ethanolamine-4,5,6,7-tetrabromo-1H-benzimidazole]
pKi (CK2; [4]): 6.89
melting point: 216 to 218 °C

CC(C)Nc1nc2c(Br)c(Br)c(Br)c(Br)c2[nH]1 [2-Isopropylamine-4,5,6,7-tetrabromo-1H-benzimidazole]
pKi (CK2; [4]): 7.22
melting point: 288 to 290 °C (dec.)

CNc1nc2c(Br)c(Br)c(Br)c(Br)c2[nH]1 [2-Methylamino-4,5,6,7-tetrabromo-1H-benzimidazole]
pKi (CK2; [4]): 7.05
melting point: 283 to 285 °C

Nc1nc2c(Br)c(Br)c(Br)c(Br)c2[nH]1 [2-amino-4,5,6,7-tetrabromobenzimidazole, reference compound]
pKi (CK2; [4]): 7.05

CN(C)c1nc2c(Br)c(Br)c(Br)c(Br)c2[nH]1 [Example K25, 2-Dimethylamino-4,5,6,7-tetrabromo-1H-benzimidazole]
Residual activity of CK1 (CK1 (casein kinase 1)): 87 percentage
Residual activity of G-CK [1]: 92 percentage
Residual activity of DYRK1a (DYRK1a): 2 percentage
Cytotoxic effect compared with TBB ([2]; FIG. 1): several times higher
Cytotoxic effect compared with TBB ([2]; FIG. 1, listed as 2-dimethylamino-4,5,6,7-tetrabromobenzimidazole): several times more active
Activation of caspase (degradation of HS1 and PARP) [3]: Activation of caspase
Depolarization of isolated mitochondria (isolated mitochondria): does not cause depolarization

Brc1c(Br)c(Br)c2[nH]nnc2c1Br [TBB, 4,5,6,7-tetrabromobenzotriazole, reference compound]
Residual activity of CK1 (CK1 (casein kinase 1)): 91 percentage
Residual activity of G-CK [1]: 95 percentage
Residual activity of DYRK1a (DYRK1a): 22 percentage

Reference: patent US7528259B2, “Derivatives of 4,5,6,7-tetrabromobenzimidazole and method of their preparation” (Selvita SP. Z O. O., priority 2004, dated 2009)
